Laboratory results published in patent US8173689B2 (Novartis AG, priority 2006, dated 2012).
Where two headings read alike, the source gives them in different places.

Assays:
kinase domain of cKIT = biological target: T1, kinase domain of cKIT (Homo sapiens, UniProt P10721); test: Inhibition of cKIT kinase signaling in an in vitro biochemical assay (alphascreen); conditions: tested at about 1 μM, read-out: cKit percent inhibition
T1 construct: The kinase domain of cKIT was assayed in 50 mM Hepes; purchased Upstate 14-559
Experimental: (§1) The IC50 values for the inhibition of RTKs were determined in the alphascreen format measuring the inhibition by compound of phosphate transfer to a substrate by the respective enzyme. Briefly, the respective RTK domain purchased as human recombinant protein (cKIT Upstate #14-559, PDGFRb Invitrogen #P3082) were incubated with serial dilutions of compound in the presence of substrate and ATP concentrations within 3 times the Km of the enzyme.
(§2) Alphascreen PY20 beads were added to the stopped cKIT reactions and PY20 Ab/Protein A Alphascreen beads were added to the PDGFRβ stopped reactions. Both reactions were incubated overnight and read on the Alphascreen reader.

kinase domain of PDGFRβ = biological target: T2, kinase domain of PDGFRβ (Homo sapiens, UniProt P09619); test: Inhibition of PDGFRb kinase signaling in an in vitro biochemical assay (alphascreen); conditions: tested at about 1 μM, read-out: PDGFRβ percent inhibition
T2 construct: The kinase domain of PDGFRβ was assayed in 50 mM Hepes; purchased Invitrogen P3082
Experimental: as §1, §2

[1] = biological target: T3, cytoplasmic domain of the human CSF-1R (Homo sapiens, UniProt P07333); test: In vitro kinase assay for colony stimulating factor-1 receptor (AlphaScreen); format: biochemical; conditions: tested at about 1 μM, read-out: CSF-1R percent inhibition
T3 construct: Recombinant protein corresponding to the cytoplasmic domain of the human CSF-1R; purchased Invitrogen Corporation, Carlsbad, Calif; PV3249
T3 sequence (P07333 539-972 limits assumed): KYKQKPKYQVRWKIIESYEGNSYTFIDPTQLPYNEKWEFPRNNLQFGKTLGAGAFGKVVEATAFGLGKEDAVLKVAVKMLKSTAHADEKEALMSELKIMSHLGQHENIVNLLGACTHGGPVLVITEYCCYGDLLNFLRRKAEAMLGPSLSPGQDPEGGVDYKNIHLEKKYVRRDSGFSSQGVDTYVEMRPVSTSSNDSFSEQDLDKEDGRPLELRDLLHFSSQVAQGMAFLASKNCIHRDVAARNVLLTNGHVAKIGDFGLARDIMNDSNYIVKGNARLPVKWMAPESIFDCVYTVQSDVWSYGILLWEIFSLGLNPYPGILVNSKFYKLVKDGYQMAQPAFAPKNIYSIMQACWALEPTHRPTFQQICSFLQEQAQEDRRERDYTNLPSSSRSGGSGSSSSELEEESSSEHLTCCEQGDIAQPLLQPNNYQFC
Experimental: The kinase activity of various protein tyrosine kinases can be measured by providing ATP and a suitable peptide or protein tyrosine-containing substrate, and assaying the transfer of phosphate moiety to the tyrosine residue. Recombinant protein corresponding to the cytoplasmic domain of the human CSF-1R was purchased from Invitrogen Corporation, Carlsbad, Calif. U.S.A. (#PV3249). For each assay, test compounds were serially diluted, starting at 25 μM with 3 fold dilutions, in DMSO in 384 well plates then mixed with an appropriate kinase reaction buffer consisting of 50 mM Hepes, 5 mM MgCl2, 10 mM MnCl2, 0.1% BSA, pH 7.5, 1.0 mM dithiothreitol, 0.01% Tween 80 plus 1 μM ATP. […] Added to the stopped reaction mix was 30 μL of PT66 Alphascreen beads (Perkin Elmer, Boston, Mass., U.S.A.). The reaction was incubated overnight and read on the Envision (Perkin Elmer). Phosphorylated peptide product was measured with the AlphaScreen system (Perkin Elmer) using acceptor beads coated with anti-phosphotyrosine antibody PT66 and donor beads coated with streptavidin that emit a fluorescent signal at the 520-620 nm emission wave length if in close proximity.
CSF-1R kinase was added at final concentration of 4 nM.

T1 sequence (P10721 589-937 limits assumed): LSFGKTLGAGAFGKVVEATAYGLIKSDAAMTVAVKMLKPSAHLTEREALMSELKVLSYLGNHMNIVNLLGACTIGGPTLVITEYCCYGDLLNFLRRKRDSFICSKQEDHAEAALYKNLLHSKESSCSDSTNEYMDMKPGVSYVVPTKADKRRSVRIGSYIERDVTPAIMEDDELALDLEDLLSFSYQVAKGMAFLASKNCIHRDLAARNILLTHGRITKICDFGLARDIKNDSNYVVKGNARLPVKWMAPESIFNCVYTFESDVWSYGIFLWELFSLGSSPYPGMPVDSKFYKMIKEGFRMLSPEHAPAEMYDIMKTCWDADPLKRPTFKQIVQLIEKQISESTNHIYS
T2 sequence (P09619 600-962 limits assumed): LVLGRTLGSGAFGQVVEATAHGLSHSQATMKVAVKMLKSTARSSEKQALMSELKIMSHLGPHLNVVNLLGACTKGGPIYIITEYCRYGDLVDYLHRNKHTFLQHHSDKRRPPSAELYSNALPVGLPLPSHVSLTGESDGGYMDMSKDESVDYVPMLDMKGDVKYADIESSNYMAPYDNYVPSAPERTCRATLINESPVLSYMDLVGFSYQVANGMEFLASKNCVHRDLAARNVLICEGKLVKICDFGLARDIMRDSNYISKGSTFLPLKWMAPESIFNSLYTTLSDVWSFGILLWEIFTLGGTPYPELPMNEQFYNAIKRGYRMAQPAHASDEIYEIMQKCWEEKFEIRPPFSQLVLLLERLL

SMILES | inhibition at 1 µM (kinase domain of cKIT) | inhibition at 1 µM (kinase domain of PDGFRβ) | inhibition at 1 µM [1] | inhibition at 1 µM (kinase domain of cKIT; compounds of Table 3) | inhibition at 1 µM (kinase domain of PDGFRβ; compounds of Table 3) | inhibition at 1 µM ([1]; compounds of Table 3)
CNC(=O)c1cc(Oc2ccc3nc(NCC4CCCO4)oc3c2)ccn1 (stereo not drawn) [Compound 102, 4-{2-[(Tetrahydro-furan-2-ylmethyl)-amino]-benzooxazol-6-yloxy}-pyridine-2-carboxylic acid methylamide] | 14% | 0% | 83% |  |  | 
CN(C)C(=O)c1cc(Oc2ccc3nc(N[C@@H]4CCCC[C@H]4O)sc3c2)ccn1 [Compound 10] |  |  |  | 0% | 9% | 67%
CNC(=O)c1cc(Oc2ccc3nc(NCCN4CCCC4)oc3c2)ccn1 [Compound 63, 4-[2-(2-Pyrrolidin-1-yl-ethylamino)-benzooxazol-6-yloxy]-pyridin-2-carboxylic acid methylamide] | 6% | 3% | 45% |  |  | 
Cn1cc(-c2cc(Oc3ccc4nc(N[C@@H]5CCCc6ccccc65)sc4c3)ccn2)cn1 [Example 363, (R)-6-(2-(1-methyl-1H-pyrazol-4-yl)pyridin-4-yloxy)-N-(1,2,3,4-tetrahydronaphthalen-1-yl)benzo[d]thiazol-2-amine] | 100% | 99% | 100% |  |  | 
O=C(O)c1cc(Oc2ccc3nc(NCC4CCCCC4)oc3c2)ccn1 [Compound 60, 4-[2-(Cyclohexylmethyl-amino)-benzooxazol-6-yloxy]-pyridine-2-carboxylic acid] | 6% | 2% | 92% |  |  | 
Cn1cc(-c2cc(Oc3ccc4nc(NCCC5CCOCC5)sc4c3)ccn2)cn1 [Example 361, 6-(2-(1-methyl-1H-pyrazol-4-yl)pyridin-4-yloxy)-N-(2-(tetrahydro-2H-pyran-4-yl)ethyl)benzo[d]thiazol-2-amine] | 100% | 75% | 100% |  |  | 
N#Cc1cc(Oc2ccc3nc(N[C@@H]4CCCC[C@H]4O)sc3c2)ccn1 [Example 226, 4-(2-((1R,2R)-2-hydroxycyclohexylamino)benzo[d]thiazol-6-yloxy)picolinonitrile] |  |  |  | 20% | 0% | 80%
CNC(=O)c1cc(Oc2ccc3nc(NC4CCN(c5ccccc5)CC4)oc3c2)ccn1 [Compound 107, 4-[2-(1-Phenyl-piperidin-4-ylamino)-benzooxazol-6-yloxy]-pyridine-2-carboxylic acid methylamide] | 8% | 0% | 67% |  |  | 
CNC(=O)c1cc(Oc2ccc3nc(NC4CCN(C(C)=O)CC4)sc3c2)ccn1 [Example 307, 4-(2-(1-acetylpiperidin-4-ylamino)benzo[d]thiazol-6-yloxy)-N-methylpicolinamide] | 15% | 6% | 90% |  |  | 
CNC(=O)c1cc(Oc2ccc3nc(N[C@@H](C(=O)OC)c4ccccc4)oc3c2)ccn1 [Compound 53, (R)-[6-(2-Methylcarbamoyl-pyridin-4-yloxy)-benzooxazol-2-ylamino]-phenyl-acetic acid methyl ester] | 21% | 0% | 95% |  |  | 
CNC(=O)c1cc(Oc2ccc3nc(NC(C)C)oc3c2)ccn1 [Compound 98, 4-(2-Isopropylamino-benzo-oxazol-6-yloxy)-pyridine-2-carboxylic acid methylamide] | 7% | 0% | 26% |  |  | 
CNC(=O)c1cc(Oc2ccc3nc(N[C@H]4CCCC[C@H]4NC(=O)[C@@H]4CCCN4C)sc3c2)ccn1 [Example 313, N-methyl-4-(2-((1S,2R)-2-((S)-1-methylpyrrolidine-2-carboxamido)cyclohexylamino)benzo[d]thiazol-6-yloxy)picolinamide] | 23% | 2% | 52% |  |  | 
CNC(=O)c1cc(Oc2ccc3nc(Nc4ccc5c(c4)OCO5)oc3c2)ccn1 [Compound 95, 4-[2-(Benzo[1,3]dioxol-5-yl-amino)-benzooxazol-6-yloxy]-pyridine-2-carboxylic acid methylamide] | 40% | 8% | 98% |  |  | 
CNC(=O)c1cc(Oc2ccc3nc(NCc4cccnc4)oc3c2)ccn1 [Compound 59, 4-{2-[(Pyridin-3-ylmethyl)-amino]-benzooxazol-6-yloxy}-pyridine-2-carboxylic acid methylamide] | 21% | 0% | 97% |  |  | 
CNC(=O)c1cc(Oc2ccc3nc(NC(C)C(O)c4cc(OC)ccc4OC)sc3c2)ccn1 (stereo not drawn) [Compound 123] |  |  |  | 1% | 0% | 62%
CNC(=O)c1cc(Oc2ccc3nc(NC[C@H](C)O)sc3c2)ccn1 [Compound 100] |  |  |  | 0% | 6% | 81%
CNC(=O)c1cc(Oc2ccc3nc(N[C@@H]4CCCC[C@H]4OCc4ccccc4)sc3c2)ccn1 [Compound 155, 4-[2-((1R,2R)-2-Benzyloxy-cyclohexylamino)-benzothiazol-6-yloxy]-pyridine-2-carboxylic acid methylamide] | 0% | 8% | 87% |  |  | 
CNC(=O)c1cc(Oc2ccc3nc(N[C@H]4c5ccccc5C[C@H]4O)oc3c2)ccn1 [Compound 49, 4-[2-((1S,2R)-2-Hydroxy-indan-1-ylamino)-benzooxazol-6-yloxy]-pyridine-2-carboxylic acid methylamide] | 63% | 25% | 55% |  |  | 
CNC(=O)c1cc(Oc2ccc3nc(NCC4(C(=O)NC)CCCCC4)oc3c2)ccn1 [Compound 112, 4-{2-[(1-Methylcarbamoyl-cyclohexylmethyl)-amino]-benzooxazol-6-yloxy}-pyridine-2-carboxylic acid methylamide] | 0% | 5% | 28% |  |  | 
CNC(=O)c1cc(Oc2ccc3nc(NC4CCCC(N)C4)sc3c2)ccn1 (stereo not drawn) [Example 294, 4-(2-(3-aminocyclohexylamino)benzo[d]thiazol-6-yloxy)-N-methylpicolinamide] |  |  |  | 1% | 0% | 87%
O[C@@H]1CCCC[C@H]1Nc1nc2ccc(Oc3ccnc(Cl)c3)cc2s1 [Example 225, (1R,2R)-2-(6-(2-chloropyridin-4-yloxy)benzo[d]thiazol-2-ylamino)cyclohexanol] |  |  |  | 21% | 0% | 90%
CNC(=O)c1cc(Oc2ccc3nc(N[C@H](CCO)c4ccccc4)oc3c2)ccn1 [Compound 51, 4-[2-((R)-3-Hydroxy-1-phenyl-propylamino)-benzooxazol-6-yloxy]-pyridine-2-carboxylic acid methylamide] | 40% | 2% | 95% |  |  | 
CNC(=O)c1cc(Oc2ccc3nc(NC(=O)c4cccc5c4OCCO5)oc3c2)ccn1 [Compound 110, 4-{2-[(2,3-Dihydro-benzo-[1,4]dioxine-5-carbonyl)-amino]-benzooxazol-6-yloxy}-pyridine-2-carboxylic acid methylamide] | 16% | 8% | 85% |  |  | 
